{"source": "paper PMC5467912", "about": "“Asymmetric regulation of quorum-sensing receptors drives autoinducer-specific gene expression programs in Vibrio cholerae” (PLoS Genetics, 2017)", "key": {"[1]": {"test_system": "QS-controlled luxCDABE operon", "assay_type": "cell-based"}, "[2]": {"test_system": "T1, WT CqsS", "T1 construct": "made in house; host or cells: E. coli C43 (DE3), pET21b; used as inverted membrane vesicles", "assay_type": "biochemical", "conditions": "for % Total Phosphorylation: CqsS WT"}, "[3]": {"molecular_target": "T2, CqsS (Vibrio cholerae serotype O1, UniProt Q9KM66)", "T2 construct": "endogenous in cells; host or cells: V. cholerae WN1102 (ΔcqsA ΔluxQ/pBB1), derived from C6706str2", "T2 sequence (Q9KM66 whole entry, looked up)": "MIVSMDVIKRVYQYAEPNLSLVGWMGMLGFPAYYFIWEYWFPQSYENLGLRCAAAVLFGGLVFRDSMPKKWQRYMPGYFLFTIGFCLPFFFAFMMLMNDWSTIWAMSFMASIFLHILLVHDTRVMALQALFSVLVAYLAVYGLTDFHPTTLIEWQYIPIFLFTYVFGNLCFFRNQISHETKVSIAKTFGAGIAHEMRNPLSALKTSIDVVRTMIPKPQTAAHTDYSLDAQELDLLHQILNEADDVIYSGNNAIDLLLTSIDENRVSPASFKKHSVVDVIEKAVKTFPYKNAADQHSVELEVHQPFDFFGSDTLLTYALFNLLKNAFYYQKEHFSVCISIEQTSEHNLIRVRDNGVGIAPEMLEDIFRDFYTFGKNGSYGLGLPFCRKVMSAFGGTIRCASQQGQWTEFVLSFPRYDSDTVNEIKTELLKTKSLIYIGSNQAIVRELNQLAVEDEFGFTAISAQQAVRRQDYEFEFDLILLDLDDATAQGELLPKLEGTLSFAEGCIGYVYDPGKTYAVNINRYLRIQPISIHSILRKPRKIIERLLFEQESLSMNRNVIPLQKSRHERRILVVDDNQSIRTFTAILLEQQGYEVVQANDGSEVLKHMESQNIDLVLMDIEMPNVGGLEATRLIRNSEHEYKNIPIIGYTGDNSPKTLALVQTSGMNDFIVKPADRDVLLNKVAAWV", "assay_type": "cell-based", "conditions": "Strain WN1102"}, "[4]": {"conditions": "ΔcqsA strain carrying luciferase"}}, "note": "“And” between values parts separate entries of the source, which are not always exact repeats. Equal values may be shown once. Read-outs that look alike come from different tables or passages of the source."}
{"smiles": "CCCCCCCCCC(=O)[C@@H](O)CC", "note": "[CAI-1, (S)-3-hydroxytridecan-4-one]", "values": [{"measurement": "Light production", "setting": "[1]; 10nM CAI-1, OD600 0.3229", "result": "637968 RLU and 656550 RLU"}, {"measurement": "Light production", "setting": "[1]; 10nM CAI-1, OD600 1.126", "result": "88099.5 RLU and 91474.2 RLU"}, {"measurement": "Light production", "setting": "[1]; 10nM CAI-1, OD600 1.799", "result": "63924400 RLU and 62812670 RLU"}, {"measurement": "Light production", "setting": "[1]; 10nM CAI-1, OD600 3.014", "result": "33012610 RLU and 33842070 RLU"}, {"measurement": "Light production", "setting": "[1]; 10nM CAI-1, OD600 3.657", "result": "10363690 RLU and 11730930 RLU"}, {"measurement": "Light production", "setting": "[1]; 50nM CAI-1, OD600 0.005", "result": "88175.7 RLU and 81418.9 RLU"}, {"measurement": "Light production", "setting": "[1]; 50nM CAI-1, OD600 0.17", "result": "729000 RLU and 688000 RLU"}, {"measurement": "Light production", "setting": "[1]; 50nM CAI-1, OD600 1.08", "result": 697000, "unit": "RLU"}, {"measurement": "Light production", "setting": "[1]; 50nM CAI-1, OD600 1.1", "result": "90900 RLU and 113000 RLU"}, {"measurement": "Light production", "setting": "[1]; 50nM CAI-1, OD600 1.96", "result": "526000000 RLU and 531000000 RLU"}, {"measurement": "Light production", "setting": "[1]; 50nM CAI-1, OD600 2.94", "result": "619000000 RLU and 599000000 RLU"}, {"measurement": "Light production", "setting": "[1]; 50nM CAI-1, OD600 3.55", "result": "346000000 RLU and 321000000 RLU"}, {"measurement": "Light production", "setting": "[1]; 100nM CAI-1, OD600 0.005", "result": "81418.9 RLU and 88175.7 RLU"}, {"measurement": "Light production", "setting": "[1]; 100nM CAI-1, OD600 0.0305", "result": "3670000 RLU and 6790000 RLU"}, {"measurement": "Light production", "setting": "[1]; 100nM CAI-1, OD600 0.1651", "result": "654000 RLU and 1050000 RLU"}, {"measurement": "Light production", "setting": "[1]; 100nM CAI-1, OD600 0.3167", "result": "332000 RLU and 388000 RLU"}, {"measurement": "Light production", "setting": "[1]; 100nM CAI-1, OD600 0.721", "result": "196000 RLU and 241000 RLU"}, {"measurement": "Light production", "setting": "[1]; 100nM CAI-1, OD600 1.101", "result": 2280000, "unit": "RLU"}, {"measurement": "Light production", "setting": "[1]; 100nM CAI-1, OD600 2.679", "result": 3170000000, "unit": "RLU"}, {"measurement": "Light production", "setting": "[1]; 100nM CAI-1, OD600 3.677", "result": "1830000000 RLU and 1870000000 RLU"}, {"measurement": "Light production", "setting": "[1]; 200nM CAI-1, OD600 0.005", "result": "81418.9 RLU and 88175.7 RLU"}, {"measurement": "Light production", "setting": "[1]; 200nM CAI-1, OD600 0.0621", "result": "2130000 RLU and 2790000 RLU"}, {"measurement": "Light production", "setting": "[1]; 200nM CAI-1, OD600 0.3026", "result": "568000 RLU and 806000 RLU"}, {"measurement": "Light production", "setting": "[1]; 200nM CAI-1, OD600 0.5074", "result": "946000 RLU and 1180000 RLU"}, {"measurement": "Light production", "setting": "[1]; 200nM CAI-1, OD600 0.5715", "result": "2260000 RLU and 2870000 RLU"}, {"measurement": "Light production", "setting": "[1]; 200nM CAI-1, OD600 1.099", "result": "27300000 RLU and 26900000 RLU"}, {"measurement": "Light production", "setting": "[1]; 200nM CAI-1, OD600 1.844", "result": 5910000000, "unit": "RLU"}, {"measurement": "Light production", "setting": "[1]; 200nM CAI-1, OD600 2.341", "result": "8370000000 RLU and 9230000000 RLU"}, {"measurement": "Light production", "setting": "[1]; 200nM CAI-1, OD600 3.352", "result": "11800000000 RLU and 12600000000 RLU"}, {"measurement": "Light production", "setting": "[1]; 200nM CAI-1, OD600 4.26", "result": "7350000000 RLU and 7860000000 RLU"}, {"measurement": "Light production", "setting": "[1]; 400nM CAI-1, OD600 0.005", "result": "81418.9 RLU and 88175.7 RLU"}, {"measurement": "Light production", "setting": "[1]; 400nM CAI-1, OD600 0.0614", "result": "1510000 RLU and 1840000 RLU"}, {"measurement": "Light production", "setting": "[1]; 400nM CAI-1, OD600 0.3014", "result": "358000 RLU and 392000 RLU"}, {"measurement": "Light production", "setting": "[1]; 400nM CAI-1, OD600 0.5621", "result": "3290000 RLU and 3630000 RLU"}, {"measurement": "Light production", "setting": "[1]; 400nM CAI-1, OD600 1.037", "result": "74300000 RLU and 84000000 RLU"}, {"measurement": "Light production", "setting": "[1]; 400nM CAI-1, OD600 1.532", "result": 10100000000, "unit": "RLU"}, {"measurement": "Light production", "setting": "[1]; 400nM CAI-1, OD600 2", "result": "31900000000 RLU and 31800000000 RLU"}, {"measurement": "Light production", "setting": "[1]; 400nM CAI-1, OD600 3.04", "result": "22900000000 RLU and 24900000000 RLU"}, {"measurement": "Light production", "setting": "[1]; 400nM CAI-1, OD600 3.35", "result": "22600000000 RLU and 24400000000 RLU"}, {"measurement": "CAI-1 concentration at which induction of bioluminescence occurred", "setting": "[1]; [4]", "result": 50, "unit": "nM"}, {"measurement": "CAI-1 concentrations that failed to activate a QS response", "setting": "[1]; [4]", "result": "below 50 nM"}, {"measurement": "CAI-1 concentrations that fully induced QS", "setting": "[1]; [4]", "result": "above 200 nM"}, {"measurement": "% Total Phosphorylation", "setting": "[2]; Agonist 0.01 uM", "result": "102.493% and 101.697% and 101.306%"}, {"measurement": "% Total Phosphorylation", "setting": "[2]; Agonist 0.1 uM", "result": "89.3767% and 102.409% and 93.98%"}, {"measurement": "% Total Phosphorylation", "setting": "[2]; Agonist 0.5 uM", "result": "97.7615% and 100.304% and 88.309% and 81.2302% and 104.248% and 84.8997% and 78.17% and 83.6501%"}, {"measurement": "% Total Phosphorylation", "setting": "[2]; Agonist 1 uM", "result": "89.5575% and 94.3418% and 94.4031% and 65.5157% and 64.6244%"}, {"measurement": "% Total Phosphorylation", "setting": "[2]; Agonist 2.5 uM", "result": "63.4493% and 51.2966% and 78.14% and 56.8331% and 55.38%"}, {"measurement": "% Total Phosphorylation", "setting": "[2]; Agonist 5 uM", "result": "72.2411% and 75.0851% and 56.1286% and 43.0708% and 37.87% and 49.5683%"}, {"measurement": "% Total Phosphorylation", "setting": "[2]; Agonist 75 uM", "result": "26.5628% and 23.1908% and 29.77% and 22.6184%"}, {"measurement": "% Total Phosphorylation", "setting": "[2]; Agonist 500 uM", "result": "13.8148% and 19.6183% and 26.8103% and 17.4064%"}, {"measurement": "% Total Phosphorylation", "setting": "[2]; Agonist 1000 uM", "result": "22.144% and 17.5686%"}, {"measurement": "inhibition of WT CqsS autophosphorylation", "setting": "[2]; saturating concentration (Fig 7B)", "result": 80, "unit": "%"}, {"measurement": "RLU", "setting": "[3]; CAI-1 0.0119209 nM", "result": "2.86E+07", "unit": "RLU"}, {"measurement": "RLU", "setting": "[3]; CAI-1 0.0476837 nM", "result": "2.99E+07", "unit": "RLU"}, {"measurement": "RLU", "setting": "[3]; CAI-1 0.190735 nM", "result": "2.91E+07", "unit": "RLU"}, {"measurement": "RLU", "setting": "[3]; CAI-1 0.762939 nM", "result": "2.65E+07", "unit": "RLU"}, {"measurement": "RLU", "setting": "[3]; CAI-1 3.05176 nM", "result": "3.77E+07", "unit": "RLU"}, {"measurement": "RLU", "setting": "[3]; CAI-1 12.207 nM", "result": "1.29E+08", "unit": "RLU"}, {"measurement": "RLU", "setting": "[3]; CAI-1 48.8281 nM", "result": "1.08E+09", "unit": "RLU"}, {"measurement": "RLU", "setting": "[3]; CAI-1 195.312 nM", "result": "1.14E+10", "unit": "RLU"}, {"measurement": "RLU", "setting": "[3]; CAI-1 781.25 nM", "result": "7.27E+10", "unit": "RLU"}, {"measurement": "RLU", "setting": "[3]; CAI-1 3125 nM", "result": "1.12E+11", "unit": "RLU"}, {"measurement": "RLU", "setting": "[3]; CAI-1 12500 nM", "result": "1.47E+11", "unit": "RLU"}, {"measurement": "RLU", "setting": "[3]; CAI-1 50000 nM", "result": "1.61E+11", "unit": "RLU"}]}
